Patent publication US12404345B2, “Humanized antibodies against iRHOM2” (SCIRHOM GMBH, priority 2021, dated 2025)

System: PMA-induced release of endogenous IL-6R from human PBMCs from healthy donors
Assay: ELISA-based IL-6R release assay, PMA-induced, PBMCs from healthy donors
Type: cell-based
Settings: PBMC, Batimastat 10 μM, PMA 25 ng/ml, 24 hours
Protocol: In the following study, ELISA-based IL-6R release assays were performed to analyze the inhibitory effects of the antibodies of the invention on PMA-induced release of endogenous IL-6R from primary human material obtained from healthy donors using peripheral blood mononuclear cells (PBMCs).
In brief, on day 1, Nunc black MaxiSorp® 96-well plates (Thermo Fisher Scientific, USA) were coated overnight with 100 μl per well of mouse anti-human IL-6R capture antibody (provided as part of the DuoSet ELISA kit) at 2 μg/ml TBS at 4° C. […]
Meanwhile, the 96-well plates were centrifuged to pellet cells. […] Using an infinite M1000 (Tecan Group, Switzerland) microplate reader, the fluorescence of each well was collected at an excitation wavelength of 435 nm and an emission wavelength of 555 nm.

With CNC(=O)[C@H](Cc1ccccc1)NC(=O)[C@H](CC(C)C)[C@H](CSc1cccs1)C(=O)NO [Batimastat] the inhibition at 10 µM was 96.2%.
